Consider 16 compounds from patent publication US20050282743A1, “Molecular interactions in cells” (Arbor Vita Corporation, priority 2001, published 2005).

Common to all, as to assay: G' assay (10 uM PL peptide), results of TABLE 7 and TABLE 12
Holding throughout (type): binding

Experiment [1] concerns the target T1, PDZ protein (GST-PDZ fusion) (Homo sapiens, UniProt Q92796).
T1 construct: made in house; host or cells: E. coli (DH5alpha, BL21 or JM109)
T1 sequence (Q92796 1-817): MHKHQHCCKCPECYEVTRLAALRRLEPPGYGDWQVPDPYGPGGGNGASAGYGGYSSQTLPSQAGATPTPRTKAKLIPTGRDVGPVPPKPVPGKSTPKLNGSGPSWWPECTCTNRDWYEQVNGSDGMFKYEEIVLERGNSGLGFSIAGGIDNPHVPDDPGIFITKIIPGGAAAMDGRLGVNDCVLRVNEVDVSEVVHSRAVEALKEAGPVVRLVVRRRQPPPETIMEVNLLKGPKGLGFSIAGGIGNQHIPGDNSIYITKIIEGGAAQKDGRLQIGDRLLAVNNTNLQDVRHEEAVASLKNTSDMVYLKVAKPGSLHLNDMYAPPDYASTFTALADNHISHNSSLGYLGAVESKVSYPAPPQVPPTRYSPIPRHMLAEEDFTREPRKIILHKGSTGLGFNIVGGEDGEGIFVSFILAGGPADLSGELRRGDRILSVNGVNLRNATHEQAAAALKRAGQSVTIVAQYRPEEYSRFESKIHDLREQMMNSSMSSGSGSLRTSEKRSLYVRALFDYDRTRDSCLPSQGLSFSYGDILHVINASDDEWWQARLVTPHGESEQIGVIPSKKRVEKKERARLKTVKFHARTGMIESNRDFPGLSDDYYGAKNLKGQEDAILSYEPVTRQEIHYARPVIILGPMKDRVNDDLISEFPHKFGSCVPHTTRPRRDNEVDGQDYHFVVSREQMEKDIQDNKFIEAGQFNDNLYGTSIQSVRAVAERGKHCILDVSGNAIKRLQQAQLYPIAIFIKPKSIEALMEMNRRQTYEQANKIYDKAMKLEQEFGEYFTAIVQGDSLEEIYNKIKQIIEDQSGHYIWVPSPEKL
Particulars: PDZ NeDLG. In outline: (§1)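 Binding classes derive from A450 nm of bound biotin-tagged PL peptide. A score of 5 needs A450 above 4 in more than two repeats.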

Experiment [2] has as its target T2, PDZ protein (GST-PDZ fusion) (Homo sapiens, UniProt P78352).
T2 construct: made in house; host or cells: E. coli (DH5alpha, BL21 or JM109)
In outline:
as §1

In experiment [3] the target is T3, PDZ protein (GST-PDZ fusion) (Homo sapiens, UniProt Q13796).
T3 construct: made in house; host or cells: E. coli (DH5alpha, BL21 or JM109)
T3 sequence (Q13796 whole entry, the tested form may be a part): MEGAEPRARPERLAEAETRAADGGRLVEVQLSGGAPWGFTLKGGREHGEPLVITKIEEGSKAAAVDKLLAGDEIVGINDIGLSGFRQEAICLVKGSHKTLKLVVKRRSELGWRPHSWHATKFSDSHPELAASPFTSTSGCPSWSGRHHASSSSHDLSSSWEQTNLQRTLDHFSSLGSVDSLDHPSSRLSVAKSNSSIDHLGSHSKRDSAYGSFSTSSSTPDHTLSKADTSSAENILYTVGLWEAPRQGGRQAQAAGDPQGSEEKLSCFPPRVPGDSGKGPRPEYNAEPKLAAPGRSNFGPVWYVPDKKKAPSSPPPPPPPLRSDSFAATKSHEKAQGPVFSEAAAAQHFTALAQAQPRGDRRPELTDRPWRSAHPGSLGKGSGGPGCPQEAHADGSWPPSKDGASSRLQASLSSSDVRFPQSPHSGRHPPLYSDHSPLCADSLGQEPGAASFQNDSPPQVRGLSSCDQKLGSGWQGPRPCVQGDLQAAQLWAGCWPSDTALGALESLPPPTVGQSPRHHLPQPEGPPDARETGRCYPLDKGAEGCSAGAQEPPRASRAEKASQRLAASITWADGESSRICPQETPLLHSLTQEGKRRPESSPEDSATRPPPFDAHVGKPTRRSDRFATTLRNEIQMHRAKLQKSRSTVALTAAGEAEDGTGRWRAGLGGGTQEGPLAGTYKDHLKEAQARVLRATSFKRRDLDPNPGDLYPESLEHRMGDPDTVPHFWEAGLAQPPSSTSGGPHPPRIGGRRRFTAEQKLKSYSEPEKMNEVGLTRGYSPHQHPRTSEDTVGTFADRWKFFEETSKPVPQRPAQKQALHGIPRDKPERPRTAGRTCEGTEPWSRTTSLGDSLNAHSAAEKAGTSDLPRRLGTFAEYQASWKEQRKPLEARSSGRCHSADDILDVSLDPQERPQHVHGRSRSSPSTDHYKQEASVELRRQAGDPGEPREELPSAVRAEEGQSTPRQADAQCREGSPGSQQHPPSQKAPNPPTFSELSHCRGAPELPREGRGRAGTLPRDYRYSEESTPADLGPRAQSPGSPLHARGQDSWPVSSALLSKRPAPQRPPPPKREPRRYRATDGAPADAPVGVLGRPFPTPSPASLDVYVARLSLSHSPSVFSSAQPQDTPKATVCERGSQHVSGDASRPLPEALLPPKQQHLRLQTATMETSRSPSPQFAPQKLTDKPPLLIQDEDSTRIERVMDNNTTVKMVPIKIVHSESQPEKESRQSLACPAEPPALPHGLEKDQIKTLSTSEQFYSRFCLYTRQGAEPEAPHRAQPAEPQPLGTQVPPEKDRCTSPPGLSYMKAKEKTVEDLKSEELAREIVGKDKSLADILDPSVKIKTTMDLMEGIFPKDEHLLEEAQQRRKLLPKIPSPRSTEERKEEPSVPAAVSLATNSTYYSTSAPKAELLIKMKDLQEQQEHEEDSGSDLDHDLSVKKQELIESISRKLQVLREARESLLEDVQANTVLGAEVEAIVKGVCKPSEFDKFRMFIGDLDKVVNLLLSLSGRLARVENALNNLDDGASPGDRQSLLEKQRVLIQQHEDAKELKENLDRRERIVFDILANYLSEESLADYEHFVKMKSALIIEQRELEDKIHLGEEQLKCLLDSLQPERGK
As to conditions: PDZ hAPXL, PDZ Domain 1. Put shortly:
as §1

For experiment [4], the target named is T4, PDZ protein (GST-PDZ fusion) (Homo sapiens, UniProt Q14160).
T4 construct: made in house; host or cells: E. coli (DH5alpha, BL21 or JM109)
T4 sequence (Q14160 whole entry, the tested form may be a part): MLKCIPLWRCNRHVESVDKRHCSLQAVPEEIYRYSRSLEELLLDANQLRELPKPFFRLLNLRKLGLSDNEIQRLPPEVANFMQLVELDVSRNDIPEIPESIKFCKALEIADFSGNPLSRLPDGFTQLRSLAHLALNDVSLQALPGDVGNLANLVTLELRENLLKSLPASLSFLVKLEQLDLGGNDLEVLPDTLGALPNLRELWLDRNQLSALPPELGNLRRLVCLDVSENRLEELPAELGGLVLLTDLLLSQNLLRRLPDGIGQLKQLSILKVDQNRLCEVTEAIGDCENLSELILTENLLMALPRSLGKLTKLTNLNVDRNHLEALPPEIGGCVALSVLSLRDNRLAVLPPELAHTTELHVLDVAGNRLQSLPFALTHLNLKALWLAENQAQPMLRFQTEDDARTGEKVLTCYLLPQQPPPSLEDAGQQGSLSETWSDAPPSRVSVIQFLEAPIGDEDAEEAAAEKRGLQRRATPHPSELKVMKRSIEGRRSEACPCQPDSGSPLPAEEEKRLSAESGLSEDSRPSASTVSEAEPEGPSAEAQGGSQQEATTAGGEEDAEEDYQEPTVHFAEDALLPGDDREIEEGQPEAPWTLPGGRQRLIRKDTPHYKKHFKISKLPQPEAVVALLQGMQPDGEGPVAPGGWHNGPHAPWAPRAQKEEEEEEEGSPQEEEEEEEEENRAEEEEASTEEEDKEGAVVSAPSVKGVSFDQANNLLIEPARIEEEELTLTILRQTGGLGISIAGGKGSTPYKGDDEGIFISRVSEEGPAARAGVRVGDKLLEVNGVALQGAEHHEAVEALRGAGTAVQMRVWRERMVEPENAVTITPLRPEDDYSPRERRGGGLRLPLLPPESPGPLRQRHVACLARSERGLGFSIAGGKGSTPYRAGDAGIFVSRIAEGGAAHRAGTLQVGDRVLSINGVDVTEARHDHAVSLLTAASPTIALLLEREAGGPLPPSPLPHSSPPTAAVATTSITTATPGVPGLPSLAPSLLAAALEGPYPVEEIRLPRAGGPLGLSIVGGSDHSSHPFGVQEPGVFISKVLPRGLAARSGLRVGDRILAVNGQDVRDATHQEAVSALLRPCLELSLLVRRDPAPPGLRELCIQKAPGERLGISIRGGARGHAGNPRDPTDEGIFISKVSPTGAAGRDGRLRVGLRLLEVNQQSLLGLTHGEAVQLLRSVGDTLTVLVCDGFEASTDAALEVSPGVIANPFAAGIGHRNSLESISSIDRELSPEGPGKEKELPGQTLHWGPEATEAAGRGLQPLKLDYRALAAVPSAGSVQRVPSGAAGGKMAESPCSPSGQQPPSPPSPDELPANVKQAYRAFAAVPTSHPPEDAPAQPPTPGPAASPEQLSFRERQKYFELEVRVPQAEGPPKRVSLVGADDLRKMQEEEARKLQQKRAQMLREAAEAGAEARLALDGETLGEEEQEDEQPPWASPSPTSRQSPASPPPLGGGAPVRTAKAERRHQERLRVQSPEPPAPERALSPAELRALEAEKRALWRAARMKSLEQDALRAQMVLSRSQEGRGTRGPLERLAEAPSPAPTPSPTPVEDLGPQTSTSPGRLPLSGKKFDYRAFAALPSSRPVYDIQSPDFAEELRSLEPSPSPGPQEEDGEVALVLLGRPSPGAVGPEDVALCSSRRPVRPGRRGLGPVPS
As to conditions: PDZ KIAA0147, PDZ Domain 1. Put shortly: as §1

Ends that are not written are not given here. Peptide text beside a SMILES is read from it. * marks the point of attachment. Biotin = O=C1N[C@H]2[C@H](CS[C@H]2CCCCC(=O)*)N1

T2 sequence (P78352 whole entry, the tested form may be a part): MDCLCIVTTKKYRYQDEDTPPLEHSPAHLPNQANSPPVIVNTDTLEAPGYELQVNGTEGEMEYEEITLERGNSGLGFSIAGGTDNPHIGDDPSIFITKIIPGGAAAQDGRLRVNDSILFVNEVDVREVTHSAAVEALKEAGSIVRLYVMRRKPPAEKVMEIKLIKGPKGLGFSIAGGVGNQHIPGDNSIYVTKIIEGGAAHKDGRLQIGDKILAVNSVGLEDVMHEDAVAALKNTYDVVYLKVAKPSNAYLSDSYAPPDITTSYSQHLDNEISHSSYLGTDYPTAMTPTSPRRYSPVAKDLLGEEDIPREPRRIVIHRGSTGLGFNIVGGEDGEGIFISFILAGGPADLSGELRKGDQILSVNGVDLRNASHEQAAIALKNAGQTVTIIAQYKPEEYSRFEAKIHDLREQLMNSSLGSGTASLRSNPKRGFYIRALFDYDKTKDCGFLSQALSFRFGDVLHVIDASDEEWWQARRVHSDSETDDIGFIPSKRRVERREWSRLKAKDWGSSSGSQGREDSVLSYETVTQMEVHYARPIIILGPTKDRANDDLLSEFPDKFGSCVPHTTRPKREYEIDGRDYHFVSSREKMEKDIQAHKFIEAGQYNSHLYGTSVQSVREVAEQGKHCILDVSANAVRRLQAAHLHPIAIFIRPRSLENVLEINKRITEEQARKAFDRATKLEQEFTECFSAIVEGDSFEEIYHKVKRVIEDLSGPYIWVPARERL

Consider “ISGTPTSTMVHGMTSSSSVV (Biotin-ISGTPTSTMVHGMTSSSSVV) [Clasp-2]”, for which the Classification is 1 (A450 nm 0-1) in experiment [1] (PDZ Domain 2) and 1 (A450 nm 0-1) in experiment [2] (PDZ PSD95, PDZ Domain 1).

For “ALVLIAFCIIRRRPSAYQAL (Biotin-ALVLIAFCIIRRRPSAYQAL) [CD68]”, in experiment [3], the Classification is 2 (A450 nm 1-2).

For the compound `CC[C@H](C)[C@H](NC(=O)[C@H](CO)NC(=O)[C@H](CCC(=O)O)NC(=O)[C@H](Cc1ccc(O)cc1)NC(=O)[C@H](CC(=O)O)NC(=O)[C@H](CC(N)=O)NC(=O)[C@H](CCC(=O)O)NC(=O)[C@H](CCCCN)NC(=O)CCCC[C@@H]1SC[C@@H]2NC(=O)N[C@@H]21)C(=O)N[C@@H](CO)C(=O)N[C@@H](CC(=O)O)C(=O)N[C@@H](CC(C)C)C(=O)N[C@@H](CCC(N)=O)C(=O)N[C@@H](CCC(N)=O)C(=O)NCC(=O)N[C@@H](CCCNC(=N)N)C(=O)N[C@@H](CC(=O)O)C(=O)N[C@H](C(=O)N[C@H](C(=O)N[C@@H](CCCNC(=N)N)C(=O)N[C@@H](CC(C)C)C(=O)O)[C@@H](C)O)[C@@H](C)CC` [PAG] (Biotin-KENDYESISDLQQGRDITRL-OH; C-terminus assumed), in experiment [3], the Classification is 2 (A450 nm 1-2).

With “GGGGGSGGGGGSGIESVKI [GLUR2 (glutamate receptor 2-modified)]”, the Classification in experiment [1] (PDZ Domain 1, 2) is given as 2 (A450 nm 1-2); in experiment [4] it was 1 (A450 nm 0-1); in experiment [2] (PDZ PSD95, PDZ Domain 1, 2, 3), 2 (A450 nm 1-2).

With `CC[C@H](C)[C@H](NC(=O)[C@H](CCCCN)NC(=O)[C@@H](NC(=O)[C@H](CO)NC(=O)[C@@H]1CCCN1C(=O)[C@H](Cc1ccccc1)NC(=O)[C@@H](NC(=O)[C@@H](NC(=O)[C@H](CCCNC(=N)N)NC(=O)[C@H](CCC(=O)O)NC(=O)[C@H](CC(C)C)NC(=O)[C@H](CC(C)C)NC(=O)[C@H](CC(C)C)NC(=O)[C@@H](NC(=O)CNC(=O)[C@@H](NC(=O)CCCC[C@@H]1SC[C@@H]2NC(=O)N[C@@H]21)C(C)C)[C@@H](C)O)C(C)C)[C@@H](C)CC)C(C)C)C(=O)N[C@@H](C)C(=O)N[C@H](C(=O)N[C@@H](CC(C)C)C(=O)N[C@H](C(=O)O)C(C)C)[C@@H](C)O` [Adenovirus E4 Type9], the Classification was 5 (A450 nm of 4 more than 2× repeated) in experiment [1] (PDZ Domain 1, 2, PL peptide 10 uM); 1 (A450 nm 0-1) in experiment [1] (PDZ Domain 1, PL peptide 10 uM); 5 (A450 nm of 4 more than 2× repeated) in experiment [1] (PDZ Domain 2, Protein Optimal Conc 5); 5 (A450 nm of 4 more than 2× repeated) in experiment [2] (PDZ PSD95, PDZ Domain 1, 2, 3, PL peptide 10 uM); 4 (A450 nm 3-4) in experiment [2] (PDZ PSD95, PDZ Domain 1, Protein Optimal Conc 5).

Regarding “RNIEEVYVGGKQVVPFSSSV (Biotin-RNIEEVYVGGKQVVPFSSSV) [Nedasin (s-form)]”, the Classification in experiment [1] (PDZ Domain 1, 2) was 2 (A450 nm 1-2); in experiment [2] (PDZ PSD95, PDZ Domain 1, 2, 3), 3 (A450 nm 2-3).

“A2AC_HUMAN (Modified) (Biotin-DFRPSFKHILFRRARRGFRQ; not fully specified)”: the Classification in experiment [3] is reported as 3 (A450 nm 2-3).

`CC[C@H](C)[C@H](NC(=O)[C@H](Cc1c[nH]cn1)NC(=O)[C@H](C)NC(=O)[C@H](C)NC(=O)[C@H](CO)NC(=O)[C@@H]1CCCN1C(=O)[C@H](CCCNC(=N)N)NC(=O)[C@H](CC(=O)O)NC(=O)[C@H](CCCCN)NC(=O)[C@@H]1CCCN1C(=O)[C@H](CC(=O)O)NC(=O)[C@H](CCC(=O)O)NC(=O)CCCC[C@@H]1SC[C@@H]2NC(=O)N[C@@H]21)C(=O)N[C@H](C(=O)N[C@@H](CCC(=O)O)C(=O)N[C@@H](C)C(=O)N[C@@H](CC(C)C)C(=O)N[C@@H](CCC(=O)O)C(=O)N[C@H](C(=O)N[C@@H](CC(=O)O)C(=O)N[C@H](C(=O)O)C(C)C)[C@@H](C)O)C(C)C` [PDZ-binding kinase (PBK)] (Biotin-EDPKDRPSAAHIVEALETDV-OH; C-terminus assumed): the Classification in experiment [1] (PDZ Domain 1, 2) is 1 (A450 nm 0-1); in experiment [2] (PDZ PSD95, PDZ Domain 1, 2, 3) it was 1 (A450 nm 0-1).

Turning to `CC(C)C[C@H](NC(=O)CNC(=O)[C@@H](NC(=O)[C@H](CO)NC(=O)[C@H](CC(N)=O)NC(=O)[C@H](Cc1ccccc1)NC(=O)CNC(=O)[C@H](C)NC(=O)[C@H](C)NC(=O)[C@H](Cc1ccccc1)NC(=O)[C@@H](NC(=O)CCCC[C@@H]1SC[C@@H]2NC(=O)N[C@@H]21)[C@@H](C)O)[C@@H](C)O)C(=O)N1CCC[C@H]1C(=O)N[C@@H](Cc1c[nH]cn1)C(=O)N[C@@H](CO)C(=O)N[C@H](C(=O)N[C@H](C(=O)N[C@@H](CCCNC(=N)N)C(=O)N[C@H](C(=O)O)C(C)C)[C@@H](C)O)[C@@H](C)O` [Neuroligin] (Biotin-TFAAGFNSTGLPHSTTRV-OH; C-terminus assumed), the Classification in experiment [1] (PDZ Domain 1, 2) was 1 (A450 nm 0-1); in experiment [1] (PDZ Domain 3), 1 (A450 nm 0-1); in experiment [2] (PDZ PSD95, PDZ Domain 1, 2, 3) it was 2 (A450 nm 1-2).

Take “ELLQFCRTPNPALKNGQYWV (Biotin-ELLQFCRTPNPALKNGQYWV)”: the Classification in experiment [3] is reported as 3 (A450 nm 2-3).

On to “SLKPGTVLPPPPYRHRNTVV (Biotin-SLKPGTVLPPPPYRHRNTVV) [ErbB-4 receptor]”, for which the Classification in experiment [1] (PDZ Domain 1, 2) is 1 (A450 nm 0-1); in experiment [2] (PDZ PSD95, PDZ Domain 1, 2, 3), 1 (A450 nm 0-1).

For the compound `CC[C@H](C)[C@H](NC(=O)[C@H](CCC(=O)O)NC(=O)[C@H](CO)NC(=O)[C@H](CCC(=O)O)NC(=O)[C@H](CCCNC(=N)N)NC(=O)[C@H](CCCNC(=N)N)NC(=O)[C@H](CC(C)C)NC(=O)[C@@H]1CCCN1C(=O)[C@H](CCCNC(=N)N)NC(=O)[C@@H]1CCCN1C(=O)[C@H](CCC(=O)O)NC(=O)[C@H](CC(C)C)NC(=O)[C@@H]1CCCN1C(=O)[C@@H](NC(=O)[C@H](CO)NC(=O)[C@H](C)NC(=O)[C@H](CCC(N)=O)NC(=O)[C@H](CC(N)=O)NC(=O)[C@H](Cc1c[nH]cn1)NC(=O)[C@H](CC(C)C)NC(=O)CCCC[C@@H]1SC[C@@H]2NC(=O)N[C@@H]21)C(C)C)C(=O)O` [Kir2.1 (inwardly rect. K+ channel)] (Biotin-LHNQASVPLEPRPLRRESEI-OH; C-terminus assumed), the Classification in experiment [1] (PDZ Domain 1, 2) was 1 (A450 nm 0-1); in experiment [2] (PDZ PSD95, PDZ Domain 1, 2, 3) it was 2 (A450 nm 1-2).

Consider `CC[C@H](C)[C@H](NC(=O)[C@H](CO)NC(=O)[C@@H](NC(=O)[C@H](Cc1ccccc1)NC(=O)[C@H](CO)NC(=O)CCCC[C@@H]1SC[C@@H]2NC(=O)N[C@@H]21)[C@@H](C)O)C(=O)N[C@@H](CC(C)C)C(=O)N[C@H](C(=O)N[C@@H](CS)C(=O)N[C@@H](Cc1c[nH]cn1)C(=O)N[C@@H](CCC(N)=O)C(=O)N[C@@H](CCCNC(=N)N)C(=O)N[C@@H](CCCNC(=N)N)C(=O)N[C@H](C(=O)N[C@@H](CCC(N)=O)C(=O)N[C@@H](CCCNC(=N)N)C(=O)N[C@@H](CCCCN)C(=O)N[C@@H](CCC(=O)O)C(=O)N[C@H](C(=O)N[C@H](C(=O)N[C@@H](C)C(=O)O)C(C)C)[C@@H](C)O)[C@@H](C)O)[C@@H](C)O` [GluR5-2 (rat)], for which the Classification is reported as 5 (A450 nm of 4 more than 2× repeated) in experiment [1] (PDZ Domain 1, 2); 1 (A450 nm 0-1) in experiment [1] (PDZ Domain 2); 2 (A450 nm 1-2) in experiment [1] (PDZ Domain 3); 2 (A450 nm 1-2) in experiment [4]; 3 (A450 nm 2-3) in experiment [2] (PDZ PSD95, PDZ Domain 1); 5 (A450 nm of 4 more than 2× repeated) in experiment [2] (PDZ PSD95, PDZ Domain 1, 2, 3). The Classification in experiment [2] (PDZ PSD95, PDZ Domain 3) is recorded as 5 (A450 nm of 4 more than 2× repeated).

Regarding “LASKSAEEGKQIPDSLSTDL (Biotin-LASKSAEEGKQIPDSLSTDL) [Dock2]”, the Classification in experiment [4] is 1 (A450 nm 0-1); in experiment [3] it was 2 (A450 nm 1-2).

With “APC—adenomatous polyposis coli protein (ESSGTQSPKRHSGSYLVTSV)”, the Classification is 4 (A450 nm 3-4) in experiment [1] (PDZ Domain 1, 2); 1 (A450 nm 0-1) in experiment [4]; 5 (A450 nm of 4 more than 2× repeated) in experiment [2] (PDZ PSD95, PDZ Domain 1, 2, 3).

Turning to “QATSRNGHSARQHVVADTEL (Biotin-QATSRNGHSARQHVVADTEL) [CD34]”, in experiment [4], the Classification was 1 (A450 nm 0-1).
